Reference: patent publication US9259000B2, “Auxin biosynthesis inhibitor” (Riken, priority 2011, dated 2016)

Legend:
Assay type in all cases: in vivo
Lettuce = experiment: Growth test, Lettuce; conditions: 30 μM, 6 days
Procedure: Lettuce was cultured in a plate vertically set and using ½ MS medium containing 1.5% sucrose, 0.8% agar and KOK1101 (30 μM) under continuous white light at 25° C. for 6 days.

Arabidopsis = experiment: Growth recovery test with IAA, Arabidopsis; conditions: 8 days
Procedure: Arabidopsis was cultured in a plate vertically set and using ½ MS medium containing 1.5% sucrose, 0.8% agar (0.6% Gelrite in the case of KOK1169), the compound of the present invention and IAA under continuous white light at 22° C. for 8 days. […] In the test, KOK1101 (30 μM), KOK1160 (30 μM), KOK1165 (30 μM), and KOK1169 (100 μM) were studied.

Tobacco = experiment: Growth test, Tobacco; conditions: compound 100 μM, 7 days after transfer
Procedure: Tobacco was cultured in a plate vertically set and using ½ MS medium containing 1.5% sucrose and 0.8% agar under continuous white light at 25° C. for 7 days. Thereafter, tobacco was transferred to a plate vertically set and using ½ MS medium containing 1.5% sucrose, 0.8% agar and the compound of the present invention (100 μM) and cultured under continuous white light at 25° C. for 7 days.

Tomato (Momotaro) = experiment: Growth test, Tomato; conditions: 100 μM, 6th day after transfer, vs DMSO control
[1] = test system: Physcomitrella patens subsp. patens; experiment: Growth test, Physcomitrella patens subsp. patens; conditions: 100 μM, 7th day after transfer, vs DMSO control
Rice (Nipponbare) = experiment: Growth test, Rice; conditions: 50 μM, 6th day after transfer, vs DMSO control
[2] = compound 100 μM + IAA 10 nM, 0.6% Gelrite

SMILES: COC(=O)[C@H](Cc1ccccc1)ON1C(=O)c2ccccc2C1=O [KOK 1101]
- growth of the aerial part (Lettuce): Apparent growth inhibition
- main root elongation (underground part) (Lettuce): promotion
- root hair formation (underground part) (Lettuce): inhibition
- main root elongation, recovery by simultaneous application with IAA (Arabidopsis; compound 30 μM + IAA 10 nM): recovered
- growth of an aerial part, recovery by simultaneous application with IAA (Arabidopsis; compound 30 μM + IAA 100 nM): recovered

SMILES: COC(=O)[C@H](Cc1cccc2ccccc12)ON1C(=O)c2ccccc2C1=O [KOK 1160]
- growth of an aerial part, recovery by simultaneous application with IAA (Arabidopsis; compound 30 μM + IAA 10 nM): recovered
- main root elongation, recovery by simultaneous application with IAA (Arabidopsis; compound 30 μM + IAA 10 nM): recovered

SMILES: COC(=O)[C@H](Cc1ccc2ccccc2c1)ON1C(=O)c2ccccc2C1=O [KOK 1165]
- growth of an aerial part, recovery by simultaneous application with IAA (Arabidopsis; compound 30 μM + IAA 10 nM): recovered
- main root elongation, recovery by simultaneous application with IAA (Arabidopsis; compound 30 μM + IAA 10 nM): recovered

SMILES: NO[C@@H](Cc1cccc2ccccc12)C(=O)O [KOK 1167]
- Note (morphology) (Tobacco): Auxin-excess like morphology

SMILES: COC(=O)[C@H](Cc1ccc2ccccc2c1)ON [KOK 1168]
- growth of seedling (Tomato (Momotaro)): remarkably inhibited
- differentiation into forage [1]: inhibited
- growth of protonemata [1]: remarkably inhibited
- growth of seedling (Rice (Nipponbare)): remarkably inhibited

SMILES: NO[C@@H](Cc1ccc2ccccc2c1)C(=O)O [KOK 1169]
- growth of an aerial part, recovery by simultaneous application with IAA (Arabidopsis; [2]): recovered
- main root elongation, recovery by simultaneous application with IAA (Arabidopsis; [2]): recovered

SMILES: NOC(Cc1cccc(Cl)c1)C(=O)O (centres unmarked) [KOK 1187]
- Note (morphology) (Tobacco): Auxin-excess like morphology
